Assay results: patent US9975895B2, “Substituted pyrimidinium compounds and derivatives for combating animal pests” (BASF SE, priority 2013, dated 2018)

How the values were obtained:
Type in all cases: in vivo
[1] = test system: Orchid thrips (Dichromothrips corbetti); assay: Orchid thrips floral-immersion bioassay; conditions: adult thrips, 72 hours after treatment, read-out: mortality in comparison with untreated controls
Procedure: Dichromothrips corbetti adults used for bioassay were obtained from a colony maintained continuously under laboratory conditions. For testing purposes, the test compound is diluted in a 1:1 mixture of acetone:water (vol:vol), plus 0.01% vol/vol Alkamuls® EL 620 surfactant. Thrips potency of each compound was evaluated by using a floral-immersion technique. Plastic petri dishes were used as test arenas. All petals of individual, intact orchid flowers were dipped into treatment solution and allowed to dry. Treated flowers were placed into individual petri dishes along with about 20 adult thrips. The petri dishes were then covered with lids. All test arenas were held under continuous light and a temperature of about 28° C. for duration of the assay. After 3 days, the numbers of live thrips were counted on each flower, and along inner walls of each petri dish. The percent mortality was recorded 72 hours after treatment.

[2] = test system: Rice green leafhopper (Nephotettix virescens); assay: Rice green leafhopper, sprayed potted rice seedlings; conditions: adults on sprayed rice seedlings, after 72 hours, read-out: mortality in comparison with untreated controls
Procedure: (§1) Rice seedlings were cleaned and washed 24 hours before spraying. The active compounds were formulated in 50:50 acetone:water (vol:vol), and 0.1% vol/vol surfactant (EL 620) was added. Potted rice seedlings were sprayed with 5 ml test solution, air dried, placed in cages and inoculated with 10 adults. Treated rice plants were kept at about 28-29° C. and relative humidity of about 50-60%. Percent mortality was recorded after 72 hours.

[3] = test system: Rice brown plant hopper (Nilaparvata lugens); assay: Rice brown plant hopper, sprayed potted rice seedlings; conditions: adults on sprayed rice seedlings, after 72 hours, read-out: mortality in comparison with untreated controls
Procedure: as §1, with “(vol:vol)” for “(vol:vol),”

[4] = test system: Green peach aphid (Myzus persicae); assay: Green peach aphid control through systemic means, artificial diet under membrane; conditions: 72 h, adult aphids on treated diet, 3 days, read-out: mortality in comparison with untreated controls
Source text: For evaluating control of green peach aphid (Myzus persicae) through systemic means the test unit consisted of 96-well-microtiter plates containing liquid artificial diet under an artificial membrane.
The compounds were formulated using a solution containing 75% v/v water and 25% v/v DMSO. Different concentrations of formulated compounds were pipetted into the aphid diet, using a custom built pipetter, at two replications.
After application, 5-8 adult aphids were placed on the artificial membrane inside the microtiter plate wells. The aphids were then allowed to suck on the treated aphid diet and incubated at about 23±1° C. and about 50±5% relative humidity for 3 days. Aphid mortality and fecundity was then visually assessed.

[5] = test system: Vetch aphid (Megoura viciae); assay: Vetch aphid control through contact or systemic means, broad bean leaf disks; conditions: foliar, 120 h, adult aphids on treated leaf disks, 5 days, read-out: mortality in comparison with untreated controls
Procedure: For evaluating control of vetch aphid (Megoura viciae) through contact or systemic means the test unit consisted of 24-well-microtiter plates containing broad bean leaf disks.
The compounds were formulated using a solution containing 75% v/v water and 25% v/v DMSO. Different concentrations of formulated compounds were sprayed onto the leaf disks at 2.5 μl, using a custom built micro atomizer, at two replications.
After application, the leaf disks were air-dried and 5-8 adult aphids placed on the leaf disks inside the microtiter plate wells. The aphids were then allowed to suck on the treated leaf disks and incubated at about 23±1° C. and about 50±5% relative humidity for 5 days. Aphid mortality and fecundity was then visually assessed.

[6] = test system: Boll weevil (Anthonomus grandis); assay: Boll weevil control, 96-well microtiter plates with insect diet and eggs; conditions: 120 h, egg and larval mortality after 5 days, read-out: mortality in comparison with untreated controls
Procedure: For evaluating control of boll weevil (Anthonomus grandis) the test unit consisted of 96-well-microtiter plates containing an insect diet and 5-10 A. grandis eggs.
The compounds were formulated using a solution containing 75% v/v water and 25% v/v DMSO. Different concentrations of formulated compounds were sprayed onto the insect diet at 5 μl, using a custom built micro atomizer, at two replications.
After application, microtiter plates were incubated at about 25±1° C. and about 75±5% relative humidity for 5 days. Egg and larval mortality was then visually assessed.

[7] = test system: Tobacco budworm (Heliothis virescens); assay: Tobacco budworm control, 96-well microtiter plates with insect diet and eggs; conditions: 120 h, egg and larval mortality after 5 days, read-out: mortality in comparison with untreated controls
Procedure: For evaluating control of tobacco budworm (Heliothis virescens) the test unit consisted of 96-well-microtiter plates containing an insect diet and 15-25 H. virescens eggs.
The compounds were formulated using a solution containing 75% v/v water and 25% v/v DMSO. Different concentrations of formulated compounds were sprayed onto the insect diet at 10 μl, using a custom built micro atomizer, at two replications.
After application, microtiter plates were incubated at about 28±1° C. and about 80±5% relative humidity for 5 days. Egg and larval mortality was then visually assessed.

O=c1c(-c2ccccc2)c([O-])[n+]2c3n1CCC3CCC2c1cnc(Cl)s1 (stereo not drawn) [C-2]
> 75%: mortality at 500 ppm [1] | mortality at 500 ppm [2] | mortality at 500 ppm [3] | mortality at 2500 ppm [4] | mortality at 2500 ppm [5]

O=c1c(-c2ccccc2)c([O-])[n+]2c3n1CCCC3CC2c1cnc(Cl)s1 (stereo not drawn) [C-3]
> 75%: mortality at 500 ppm [1] | mortality at 500 ppm [2] | mortality at 500 ppm [3] | mortality at 2500 ppm [4] | mortality at 2500 ppm [5]

O=c1c(-c2ccccc2)c([O-])[n+]2c3n1CCN3CCC2c1cnc(Cl)s1 (stereo not drawn) [C-4]
> 75%: mortality at 500 ppm [1] | mortality at 500 ppm [2] | mortality at 2500 ppm [4]

O=c1c(-c2ccccc2)c([O-])[n+]2c3n1CCCC3CCC2c1cnc(Cl)s1 (stereo not drawn) [C-6]
> 75%: mortality at 500 ppm [1] | mortality at 500 ppm [2] | mortality at 500 ppm [3] | mortality at 2500 ppm [4] | mortality at 2500 ppm [5]

O=c1c(-c2ccccc2)c([O-])[n+]2c3n1CCCN3CCC2c1cnc(Cl)s1 (stereo not drawn) [C-7]
> 75%: mortality at 500 ppm [1] | mortality at 500 ppm [2] | mortality at 500 ppm [3] | mortality at 2500 ppm [4] | mortality at 2500 ppm [5] | mortality at 2500 ppm [6]

O=c1c(-c2ccccc2)c([O-])[n+]2c3c(cccn13)CCC2c1cnc(Cl)s1 (stereo not drawn) [C-8]
> 75%: mortality at 500 ppm [1] | mortality at 2500 ppm [7] | mortality at 500 ppm [2] | mortality at 500 ppm [3] | mortality at 2500 ppm [4] | mortality at 2500 ppm [5] | mortality at 2500 ppm [6]

O=c1c(-c2cccc(C(F)(F)F)c2)c([O-])n2c3c(ccc[n+]13)CCC2c1cnc(Cl)s1 (stereo not drawn) [C-9]
> 75%: mortality at 2500 ppm [7] | mortality at 2500 ppm [4] | mortality at 2500 ppm [5]

O=c1c(-c2cc(Cl)cc(Cl)c2)c([O-])n2c3c(ccc[n+]13)CCC2c1cnc(Cl)s1 (stereo not drawn) [C-10]
> 75%: mortality at 2500 ppm [7] | mortality at 2500 ppm [5]

COc1ccc(-c2c([O-])n3c4c(ccc[n+]4c2=O)CCC3c2cnc(Cl)s2)cc1 (stereo not drawn) [C-11]
> 75%: mortality at 2500 ppm [7] | mortality at 2500 ppm [4] | mortality at 2500 ppm [5]
